Where two headings read alike, the source gives them in different places.
Tests used:
[1] = system: human prostate cancer cell VCaP nude mouse transplanted tumor model; assay: Prostate tumor pharmacodynamics experiment: VCaP nude mouse transplanted tumor model; type: in vivo, BALB/c nude mice; conditions: for inhibition in vivo at 500 µmol/kg: Mus musculus, VCaP, po, 600 h, read-out: Growth Inhibition rate (GI); for Tumor volume, day 25: n=6, * P<0.05, ** P<0.01 vs solvent control
Description: Male BALB/c nude mice (number: 90; age: 6-7 weeks) purchased from Beijing Vital River Laboratory Animal Technology Co., Ltd., were raised in the SPF animal room of Suzhou Shengsu New Drug Development Co., Ltd. at a temperature of 20˜25° C. and a relative humidity 40%˜70%, and bright and dark illumination for 12 hours respectively; these mice were allowed to drink and eat freely. After normal feeding for about 6 days, mice with good physical signs can be selected for this experiment after veterinary inspection. Before grouping, animals were identified at their base of tail using marking pens. After grouping, each animal was identified by ear clipping.
Human prostate cancer cells VCaP were obtained from the Shanghai Cell Bank of the Chinese Academy of Sciences (CAS, cryopreserved in liquid nitrogen in our laboratory).
Under a culture condition of 5% CO2 and 37° C., VCaP cells were routinely cultured in DMEM medium containing 10% fetal bovine serum. Digested with 0.25% trypsin and passaged, VCaP cells were passaged 2-3 times per week based on cell growth, with a passage ratio of 1:3 to 1:5.
The VCaP cells in logarithmic growth phase were collected, counted, and resuspended in 50% DMEM basal medium and 50% Matrigel Matrix, and the cell concentration was adjust to 5×10^7 cells/mL; the cells was placed in an ice box; Cell suspension was aspirated with a 1 ml syringe, and injected subcutaneously to the anterior right armpit of nude mice. Each animal was inoculated with 200 μL (1×10^7 cells/mouse), and a VCaP transplant tumor model in nude mice was established. Regularly observe the status of mice, measure the diameter of the tumor with an electronic vernier caliper, input the data into Excel spreadsheets, calculate the tumor volume, and monitor its growth. When the tumor volume reached 100-300 mm3, 60 mice with good health and similar tumor volume were selected, and divided into 10 groups (n=6) based on the tumor volume using random block method, while ensuring that the average body weight of each group remained consistent as much as possible. The day of grouping was taken as the first day of the experiment (D1). The tumor diameters were measured twice a week after the initiation of the experiment, the tumor volumes were calculated, and the body weights of the animals were weighed and recorded at the same time.
Preparation of DMSO&PEG400&PG (v:v:v, 10:60:30): appropriate volumes of DMSO, PEG400 and PG were drawed respectively, and mixed well. The ratio of DMSO, PEG400 and PG in the mixture is 10:60:30 (v:v:v), and this mixture is used as a blank solvent and stored at room temperature.
Appropriate amount of the test compound was weighed and added into a glass bottle, appropriate volume of solvent DMSO was added, be treated with vortex ultrasonication, then appropriate volumes of PEG400 and PG were added in turn, be vortex mixed to obtain a dosing formulation with a final concentration of 0.05M. The dosing formulation was stored in refrigerator at 2-8° C. after subpackaging, and was stirred evenly with vortex before each administration. The dosing formulation was prepared every 7 days, and was subpackaged and stored in refrigerator at 4° C.
Appropriate amount of ZONK1901-10 was weighed and added into a glass bottle, appropriate volume of corn oil, was added, be treated with vortex ultrasonication evenly, a dosing formulation with a final concentration of 19.58 mg·mL-1 (0.05 M) was obtained.

[2] = system: experimental rabbit ear acne; assay: Pharmacodynamics evaluation of acne: coal tar rabbit ear acne model, HE pathology; type: in vivo, Japanese big-ear white rabbits; conditions: 0.01% ointment, 1 g per animal, once a day, two weeks, 10 rabbits per group; for Degree of keratinization: number of rabbits graded + / Degree of keratinization: number of rabbits graded ++ / Degree of keratinization: number of rabbits graded +++ / Degree of keratinization: number of rabbits graded −: hair follicle keratinization
Description: There are 140 male healthy Japanese big-ear white rabbits, weighing 2.0-2.5 kg. After one week of adaptive rearing, 10 rabbits were randomly selected according to their body weights as the normal control group, and the remaining 130 rabbits were coated with coal tar once a day in the area of 2×2 cm2 at 2 cm outside the opening of ear canal, with a thickness of about 0.5 mm (Before coating, the coal tar was heated to melt in a water bath, and the last coal tar shell was removed before each application; the rabbits in normal control group were coated with olive oil by the same method as before). After 3 weeks for modeling, according to the degree of skin lesion, 130 rabbits were randomly divided into 13 groups which is model control group, Example 1 compound (1 group), Example 2 compound (2 groups), Example 3 compound (3 groups), Example 4 (4 groups), Example 5 (5 groups), Example 6 (6 groups), Example 7 (7 groups), Example 8 (8 groups), Example 9 (9 groups), Example 10 (10 groups), Example 11 (11 groups), Example 12 (12 groups), Example 13 (13 groups), and each group had 10 rabbits. After grouping, each dose group were continued to be coated coal tar in the morning, and after the coal tar was removed in the afternoon, apply the test drug or control drug (both 0.01%/10 g ointment, apply 1 g ointment per animal) on the lesion, once a day, for two consecutive weeks (the model control group and the normal control group were coated with the same amount of matrix). 24 hours after the last administration, the animals were sacrificed by air embolism, and the skin (full thickness) of the ear where the administration was administered was taken, fixed with 4% paraformaldehyde solution, stained with HE, and routinely observed for pathology.1.

[3] = day 25, 0.5 mmol·kg−1 i.g. QD, vs solvent control

| SMILES | inhibition in vivo at 500 µmol/kg [1, 3] [%] | Tumor volume, day 25 ([1]; day 25, 0.5 mmol·kg−1 i.g. QD) | degree of inflammatory cell infiltration: number of rabbits graded + [2] | degree of inflammatory cell infiltration: number of rabbits graded ++ [2] | degree of inflammatory cell infiltration: number of rabbits graded +++ [2] | degree of inflammatory cell infiltration: number of rabbits graded − [2] | Degree of keratinization: number of rabbits graded + [2] | Degree of keratinization: number of rabbits graded ++ [2] | Degree of keratinization: number of rabbits graded +++ [2] | Degree of keratinization: number of rabbits graded − [2] | inhibition in vivo at 500 µmol/kg [1] [%] |
| --- | --- | --- | --- | --- | --- | --- | --- | --- | --- | --- | --- |
| CN(C)CCNC(=O)ON=C1C=C2CC[C@H]3[C@H](CC[C@]4(C)C(c5cccnc5)=CC[C@@H]34)[C@@]2(C)CC1 [Example 1, (8S,9S,10R,13S,14S)-10, 13-Dimethyl-17-(pyridin-3-yl) -6,7,8,9,10,11,12,13,14,15-decahydro-1H-cyclopenteno[a]phenanthrene-3(2H)-one O-((2-(dimethylamino)ethyl)carbamoyl)oxime] | 82.2 | 384 ± 32 ** mm3 | 5 | 3 | 2 | 0 | 6 | 4 | 0 | 0 |  |
| CN(C)C(=O)ON=C1C=C2CC[C@H]3[C@H](CC[C@]4(C)C(c5cccnc5)=CC[C@@H]34)[C@@]2(C)CC1 [Example 2, (8S,9S,10R,13S,14S)-10,13-Dimethyl-17-(pyridin-3-yl) 6,7,8,9,10,11,12,13,14,15-decahydro-1H-cyclopenta[a]phenanthrene-3(2H)-one O-dimethylcarbamoyl oxime] | 81.4 | 393 ± 25 ** mm3 | 4 | 4 | 2 | 0 | 5 | 5 | 0 | 0 |  |
| C[C@]12CCC(=NOC(=O)N(CCCl)CCCl)C=C1CC[C@H]1[C@@H]2CC[C@]2(C)C(c3cccnc3)=CC[C@@H]12 [Example 3, (8S,9S,10R,13S,14S)-10,13-Dimethyl-17-(pyridin-3-yl) -6,7,8,9,10,11,12,13,14,15-decahydro-1H-cyclopenta[a]phenanthrenyl-3(2H)-one O-(bis(2-chloroethyl)carbamoyl)oxime] |  | 478 ± 64 ** mm3 | 5 | 4 | 1 | 0 | 6 | 4 | 0 | 0 | 71.2 |
| CC(=O)ON=C1C=C2CC[C@H]3[C@H](CC[C@]4(C)C(c5cccnc5)=CC[C@@H]34)[C@@]2(C)CC1 [Example 7, (8S,9S,10R,13S,14S)-10,13-Dimethyl-17-(pyridin-3-yl) -6,7,8,9,10,11,12,13,14,15-decahydro-1H-cyclopenta[a]phenanthrenyl-3(2H)-one O-acetyloxime] |  |  | 5 | 3 | 2 | 0 | 6 | 4 | 0 | 0 |  |
| CC(C)C(=O)OCOC(=O)ON=C1C=C2CC[C@H]3[C@H](CC[C@]4(C)C(c5cccnc5)=CC[C@@H]34)[C@@]2(C)CC1 [Example 8, ((((((8S,9S,10R,13S,14S)-10,13-dimethyl-17-(pyridin-3-yl) -7,8,9,11,12,13,14,15-octahydro-1H-cyclopenta[a]phenanthrenyl-3(2H,6H,10H) -ylidene)amino)oxy)carbonyl)oxy)methyl isobutyrate] |  |  | 4 | 4 | 2 | 0 | 5 | 5 | 0 | 0 |  |
| C[C@]12CCC(=NOC(=O)OCCN3CCOCC3)C=C1CC[C@H]1[C@@H]2CC[C@]2(C)C(c3cccnc3)=CC[C@@H]12 [Example 9] |  |  | 5 | 4 | 1 | 0 | 6 | 4 | 0 | 0 |  |
| C[C@]12CCC(=NOC(=O)C3CCNCC3)C=C1CC[C@H]1[C@@H]2CC[C@]2(C)C(c3cccnc3)=CC[C@@H]12 [Example 10, (8S,9S,10R,13S,14S)-10,13-Dimethyl-17-(pyridin-3-yl) -6,7,8,9,10,11,12,13,14,15-decahydro-1H-cyclopenta[a]phenanthrenyl-3(2H)-one O-piperidine-4-carbonyl oxime] |  |  | 5 | 3 | 2 | 0 | 6 | 3 | 0 | 1 |  |
| CN1CCC(C(=O)ON=C2C=C3CC[C@H]4[C@H](CC[C@]5(C)C(c6cccnc6)=CC[C@@H]45)[C@@]3(C)CC2)CC1 [Example 11, (8S,9S,10R,13S,14S)-10,13-Dimethyl-17-(pyridin-3-yl) -6,7,8,9,10,11,12,13,14,15-decahydro-1H-cyclopenta[a]phenanthrenyl-3(2H)-one O-(1-methylpiperidine-4-carbonyl)oxime] |  |  | 6 | 3 | 1 | 0 | 7 | 3 | 0 | 0 |  |
| CC(=O)N1CCC(C(=O)ON=C2C=C3CC[C@H]4[C@H](CC[C@]5(C)C(c6cccnc6)=CC[C@@H]45)[C@@]3(C)CC2)CC1 [Example 12, 1-(4-(((((8S,9S,10R,13S,14S)-10,13-dimethyl-17-(pyridin-3-yl) -7,8,9,11,12,13,14,15-octahydro-1H-cyclopenteno[a]phenanthrenyl-3(2H,6H, 10H) -ylidene)amino)oxy)carbonyl)piperidin-1-yl)ethanone] |  |  | 5 | 4 | 1 | 0 | 5 | 5 | 0 | 0 |  |
| CN(C)CCN1CCC(C(=O)ON=C2C=C3CC[C@H]4[C@H](CC[C@]5(C)C(c6cccnc6)=CC[C@@H]45)[C@@]3(C)CC2)CC1 [Example 13, (8S,9S,10R,13S,14S)-10,13-Dimethyl-17-(pyridin-3-yl) -6,7,8,9,10,11,12,13,14,15-decahydro-1H-cyclopenta[a]phenanthrenyl-3(2H)-one O-(1-(2-(dimethylamino)ethyl)piperidine-4-carbonyl)oxime] |  |  | 6 | 3 | 1 | 0 | 4 | 6 | 0 | 0 |  |
| CC(=O)ON=C1C=C2CC[C@H]3[C@H](CC[C@]4(C)C(c5cccnc5)=CC[C@@H]34)[C@@]2(C)CC1 [H] | 69.3 |  |  |  |  |  |  |  |  |  |  |
| CCC(=O)O/N=C1/C=C2CC[C@H]3[C@H](CC[C@]4(C)C(c5cccnc5)=CC[C@@H]34)[C@@]2(C)CC1 [ZONK1901-19, reference compound] | 38.7 | 790 ± 49 * mm3 |  |  |  |  |  |  |  |  |  |

Reference: patent publication US20240208905A1, “ABIRATERONE DERIVATIVE, PREPARATION AND APPLICATION THEREOF” (GUANGDONG ZHONGKE MEDICINE R&D LTD., priority 2021, published 2024)
